Results as given in PubChem BioAssay AID1996.
In brackets after ≈: the same amount, converted by molar mass.

settings: buffer; pH 7.4; 200.0 µM

SMILES	solubility kinetic [µg/mL]
NC(=O)c1ccc(S(=O)(=O)N2CCSCC2)cc1	37.9 (≈ 132 µM)
COc1cccc(-n2c(-c3ccccc3)c[nH]c2=S)c1	7.8 (≈ 27.6 µM)
CC(C)CNS(=O)(=O)c1cc2c3c(c1)CC(=O)N3CCC2	45.8 (≈ 149 µM)
O=C1Nc2ccccc2C(=O)N2CCCCC12 (stereo not given)	19.3 (≈ 83.8 µM)
Cc1cnc(=O)[nH]c1SCC(=O)Nc1nccs1	31 (≈ 110 µM)
Nc1c(C(=O)OCC(=O)Nc2ccccc2Br)[nH]c(=O)[nH]c1=O	25.6 (≈ 66.8 µM)
O=C(NCCN1CCCCC1)Nc1ccccc1Cl	> 42.3
CN(CCOc1ccc(CC2SC(=O)NC2=O)cc1)c1ccccn1.O=C(O)/C=C\C(=O)O (stereo not given)	68.2
O=C(NC1CCS(=O)(=O)C1)c1cccs1 (stereo not given)	> 36.8
Cc1nnc(SC(C)C#N)n1-c1ccccc1 (stereo not given)	> 36.6
O=C(COC(=O)Cc1ccsc1)Nc1ccc(Cl)cn1	> 46.6
COc1ccccc1CNC(=S)Nc1ccc(F)cc1	12 (≈ 41.3 µM)
Cc1nnc(Cn2cnc3c2c(=O)n(C)c(=O)n3C)o1	> 41.4
O=C(c1ccccc1F)N1CCCc2ccccc21	33.4 (≈ 131 µM)
C=CCNC(=S)Nc1sc2c(c1C(N)=O)CCCC2	18.2 (≈ 61.6 µM)
COc1ccc(C(=O)n2cnc3ccccc32)cc1Br	46.7 (≈ 141 µM)
COc1cc2c(C(=O)O)c(C)n(-c3ccccc3)c2c2ccccc12	1.3 (≈ 3.92 µM)
CC(=O)Nc1ccc(OCC(O)Cn2cncn2)cc1 (stereo not given)	> 41.4
O=C(CNC(=O)c1cccs1)OCc1c(F)cccc1Cl	42.4 (≈ 129 µM)
O=C(COc1ccccc1C(=O)O)NC1CCCc2ccccc21 (stereo not given)	13.8 (≈ 42.4 µM)

SMILES	solubility kinetic [µg/mL]
CCOC(=O)c1cc(-c2csc(COc3ccccc3Cl)n2)on1	< 0.4
COC(=O)c1ccsc1NC(=O)CCc1ccccc1	9.6 (≈ 33.2 µM)
O=C(NCC1CCCO1)c1ccc(NC(=O)c2cccc([N+](=O)[O-])c2)cc1 (stereo not given)	3.5 (≈ 9.48 µM)
CCS(=O)(=O)N1CCC(C(=O)Oc2ccc(C)c(C)c2)CC1	38.5 (≈ 118 µM)
O=C1CCCC2=C1C(c1ccccc1)CC(=O)N2c1ccc(F)cc1F (stereo not given)	45.8 (≈ 130 µM)
CSc1ccc(/C=N/S(=O)(=O)c2ccccc2)cc1	> 43.7
CCOc1ccc(C(CC(=O)O)NC(=O)Cc2ccc(Cl)cc2)cc1 (stereo not given)	> 54.3
CC(C)Oc1cccc(C2NC(=O)c3ccccc3O2)c1 (stereo not given)	6.7 (≈ 23.6 µM)
COc1ccccc1CNC(=O)CN(C)CC(=O)Nc1ccc(F)c(F)c1F	> 59.3
Cc1cc(OCCCn2ccnc2)cc(C(C)C)c1	23.3 (≈ 90.2 µM)
N#CSC(c1ccccc1)c1nc2ccccc2[nH]c1=O (stereo not given)	26.9 (≈ 91.7 µM)
COc1ccc(Cl)cc1S(=O)(=O)n1ccnc1	> 40.9
CCC(=O)Nc1cc2c3c(c1)CCN3C(=O)CC2	35.3 (≈ 144 µM)
COc1cccc(NC(=O)c2cnc(SC)nc2)c1	14.3 (≈ 51.9 µM)
COc1ccc(S(=O)(=O)N2CCC(C(=O)Oc3cccc(C)c3)CC2)cc1OC	< 0.9
CCOC(=O)C1=C(N)c2ccccc2CC1C1CCCC1 (stereo not given)	0.8 (≈ 2.8 µM)
CC1CCN(C(=O)CCNC(=O)c2ccccc2Cl)CC1	41.1 (≈ 133 µM)
CCOC(=O)c1c(S(=O)(=O)N2CCCC2)c(C)n(C)c1C	> 47.2
O=C(CSc1nc2cc(Cl)ccc2o1)NC1CC1	> 42.4
O=C(Nc1cc(Cl)cc(Cl)c1)N1CCCC1	34.6 (≈ 134 µM)

SMILES	solubility kinetic [µg/mL]
COc1ccccc1OC(C)C(=O)N1CCc2ccccc21 (stereo not given)	3.3 (≈ 11.1 µM)
COc1ccc(OC)c(/C=C/c2nc3ccccc3[nH]c2=O)c1	3.1 (≈ 10.1 µM)
O=C(c1ccc([N+](=O)[O-])o1)N1CCN(Cc2ccccc2)CC1	9.2 (≈ 29.2 µM)
C=CCNC(=O)C1CCC(C(=O)NCC=C)CC1 (stereo not given)	> 37.6
Nc1nccc(-c2cc(-c3ccc(Cl)cc3Cl)no2)n1	0.7 (≈ 2.28 µM)
NC(N)=NS(=O)(=O)c1ccc(NC(=S)NC(=O)c2ccccc2)cc1	3.9 (≈ 10.3 µM)
CCOC(=O)Cn1cc(C#N)c(=O)[nH]c1=O	> 33.5
COc1ccc(NC(=O)NCc2cccnc2)c(OC)c1	> 43.1
CC1CCCC(NC(=O)Cn2c(Cl)nc3c2c(=O)n(C)c(=O)n3C)C1C (stereo not given)	> 57.3
CCOc1ccc(C(=O)N2CCN(c3ncccn3)CC2)cc1	42.3 (≈ 135 µM)
Cc1ccc(NC(=O)N2CCCCCC2)c(C)c1	> 37
CCOC(=O)COc1ccc2c(c1)c(C(C)=O)c(C)n2Cc1ccccc1	6.9 (≈ 18.9 µM)
O=C(O)c1cccnc1C(=O)c1ccccc1	31.9 (≈ 140 µM)
O=C(N1CCN(CCO)CC1)N1c2ccccc2CCc2ccccc21	45.9 (≈ 131 µM)
CC1CCc2c(sc(NC(=O)/C=C/c3cccs3)c2C(=O)O)C1 (stereo not given)	> 52.1
Fc1cnc(Cl)nc1NC1CCCCC1	27.1 (≈ 118 µM)
Cc1cc(C)cc(NC(=S)N2CC(C)OC(C)C2)c1 (stereo not given)	35.1 (≈ 126 µM)
CN1C(=O)/C(=C\c2ccccc2OCc2ccccc2)SC1=S	< 0.7
CC(C)(C)c1nc(N)nc(=O)[nH]1	23.9 (≈ 142 µM)
O=C(Nc1ccc(F)cc1F)N1CCN(CCc2ccccc2)CC1	42.7 (≈ 124 µM)
